In assay [1] the test system is middle cerebral artery ischemia-reperfusion model. In words: Cerebroprotective action in middle cerebral artery ischemia-reperfusion model. The format is in vivo, rat. How it is done: CD(SD)IGS male rats (Japan Charles River Kabushiki […], Hino farm, room No. 22, specific product) (8 rats per one group) having body weight 270 to 350 g were anesthetized by 2% isoflurane (mixed bas comprising of 70% N2O (laughter gas) and 30% O2) to immobilize, and then the rats were put on warming plate to keep the rectal and brain temperature 37 to 38° C. After that, to observe the stability in the examination, canula which was made by polyethylene (PE-50, Becton Dickinson) was inserted and left in caudal artery of said animal, and this made blood drawing and blood pressure determining to monitor the biochemical parameter such as blood sugar level, hematocrit, CO2 concentration, oxygen partial pressure, pH, blood pressure and etc. In addition, cerebral blood flow in cortex was determined by laser doppler […] (Neuroscience.inc: OMEGA FLOW (FLO-C1)), putting the detection site directly on cranium on the point left 4 mm from bregma. Left neck of such animal was incised, and from internal and external carotid fork of common carotid artery to upstream of internal carotid, nylon surgical thread (length 16 mm, diameter 0.2 to 0.3 mm, with silicon coating on its tip 3 mm) was passed and left, middle cerebral artery was obstructed for 2 hours. After that, the thread was removed to release the middle cerebral artery, and blood was reperfused for 21 hours. To each animals, 3.0 mg/kg of 3-methyl-1-phenyl 2-pyrazolin-5-one (control, hereinafter referring to edaravone) and 4.23 mg/kg of 4-(5-phenyltetrazol-1-ylmethyl)-morpholine (compound 1) (test compound, hereinafter referring to TM-3001) were respectively administered twice by cannula which is left in caudal artery 5 minutes and 5 hours after middle cerebral artery occlusion. After said operation, the brain was removed from said animal, and after preparing 7 brain slices with 2 mm thickness, to TTC stain (0.8 g of 2,3,5-triphenyltetrazolium chloride (Sigma) dissolved in 40 ml of saline) were soaked at 37° C. for 15 minutes to stain, and fixed by 10% neutral formalin liquid to prepare specimen. Such specimens were created the image by CCD camera respectively, and analysed according to method of Swanson et al. (J Cereb Blood Flow Metab 10:290-293; […]). […] Furthermore, function recovering was estimated before and after the operation by rotor rod test that estimates how much they can walk on rotating rotor.

Assay [2] has the same test system. The description is as above. Format: in vivo, rat. The following applies: after reperfusion 22 hrs.
The mark [3] stands for this setting: comparing to diluent single administration.

`CC1=NN(c2ccccc2)C(=O)C1` [Edaravone, 3-methyl-1-phenyl 2-pyrazolin-5-one, reference compound]: the “Nervous condition estimation test, Ave (Bederson grade)” value in assay [1] (after occlusion 10 min) was 2.8; in assay [1] (after occlusion 2 hrs), 2.7; in assay [1] (after reperfusion 10 min), 2.2; in assay [1] (after reperfusion 3 hrs), 2.1; in assay [1] (after reperfusion 4 hrs) it was 2.0; in assay [2], 1.5. In addition, the “rotor rod test, Ave (count from rotor rod machine)” value in assay [1] (before occlusion) is listed as 197.0; in assay [1] (reperfusion), 153.1. Further, the “improvement for nervous condition” value in assay [1] (setting [3]) is on record as “remarkably shown”. For the same compound, the “recovering the function, rotor rod test” value in assay [1] (setting [3]) was “remarkably shown”. In assay [1] (comparing to diluent single administration, dosed 5 minutes and 5 hours after occlusion), the cerebral infarction nest result is on record as “significantly reduced”. The “rotor rod test, ratio to before occlusion (%), Ave” value in assay [1] (reperfusion vs before occlusion) worked out at 160.4%.
